Values after ≈ are worked out from the molar mass of the structure shown. Where two headings read alike, the source gives them in different places. Positions of bridges follow the written chain, without caps; N, C: chain ends. Residues, ends and D or L forms follow the SMILES beside them. Chains are numbered I, II in the order given. *: point of attachment. Cys(free,S-linked) = N[C@@H](CS*)C(=O)O; Myristoyl = CCCCCCCCCCCCCC(=O)*; SPy = c1ccc(S*)nc1
What was measured:
[1] = system: Bacillus subtilis strain 168S
Protocol: Compounds were tested for antimicrobial activity against a variety of bacterial strains that included one or more of the following microorganisms: Escherichia coli strain TG1, Bacillus subtilis strain 168S, Staphylococcus aureus H, Enterococcus faecium STR 207 (Van A resistant phenotype), Enrterococcus faecium STR211 (Vancomycin sensitive phenotype), and Enterococcus faecalis V 583 (Van B resistant phenotype). For the testing of compounds for antimicrobial activity against E. coli and B. subtilis cultures of each bacterial strain were diluted in 2.5 mL of fresh LB broth to approximately 5×10^6 cells/mL for assay. […] Antibacterial activity was determined from inspection of the turbidity of the different cultures and from determination of the optical density of the cultures at a wavelength of 600 nm. For the testing of compounds for antimicrobial activity against E. Faecium STR 207, E. faecium 211, E. faecalis V 583, and S. aureus H, a different procedure was used. These microorganisms were cultured in brain heart/0.5% yeast extract (BHY) broth and incubated overnight at 37° C. A sample of each culture was then diluted 40-fold in fresh BHY broth and incubated at 37° C. for 1 h. The resultant mid-log phase cultures were diluted to 106 cfu/mL, then added to wells of 96-well polypropylene plates. […] The 96-well plates were covered and incubated at 37° C. overnight. Minimum inhibitory concentrations were determined by inspection of turbidity after incubation.

[2] = system: Escherichia coli strain TG1
Protocol: (§1) Compounds were tested for antimicrobial activity against a variety of bacterial strains that included one or more of the following microorganisms: Escherichia coli strain TG1, Bacillus subtilis strain 168S, Staphylococcus aureus H, Enterococcus faecium STR 207 (Van A resistant phenotype), Enrterococcus faecium STR211 (Vancomycin sensitive phenotype), and Enterococcus faecalis V 583 (Van B resistant phenotype). For the testing of compounds for antimicrobial activity against E. coli and B. subtilis cultures of each bacterial strain were diluted in 2.5 mL of fresh LB broth to approximately 5×10^6 cells/mL for assay. […] The cultures were grown with shaking for up to 16 h at 37° C. for E. coli cultures and 30° C. for B. subtilis cultures. Antibacterial activity was determined from inspection of the turbidity of the different cultures and from determination of the optical density of the cultures at a wavelength of 600 nm. For the testing of compounds for antimicrobial activity against E. Faecium STR 207, E. faecium 211, E. faecalis V 583, and S. aureus H, a different procedure was used. These microorganisms were cultured in brain heart/0.5% yeast extract (BHY) broth and incubated overnight at 37° C. A sample of each culture was then diluted 40-fold in fresh BHY broth and incubated at 37° C. for 1 h. The resultant mid-log phase cultures were diluted to 106 cfu/mL, then added to wells of 96-well polypropylene plates. […] The 96-well plates were covered and incubated at 37° C. overnight. Minimum inhibitory concentrations were determined by inspection of turbidity after incubation.

Staphylococcus aureus H = system: Staphylococcus aureus H
Protocol: as §1

[3] = system: Enterococcus faecium STR 211 (Vancomycin sensitive phenotype)
Protocol: as §1

[4] = system: Enterococcus faecalis V 583 (Van B resistant phenotype); conditions: E. faecalis V 583
Protocol: as §1

Haemolysis assay = format: cell-based; conditions: sensitised sheep erythrocytes, 1 hour at 37° C., printed μM or uM, read-out: LC50 (concentration of compound required to give 50% lysis)
Protocol: (§2) Lysis of sensitised sheep erythrocytes was measured using a standard haemolytic assay using a v-bottom microtitre plate format as follows:
(§3) 50 microlitres of a range of concentrations of compound diluted in Hepes buffer were mixed with 100 microlitres of sensitised sheep erythrocytes and then incubated for 1 hour at 37° C. Samples were spun at 1600 rpm at ambient temperature for 3 minutes before transferring 150 microlitres of supernatant to a flat bottom microtitre plate and determining the absorption at 405 or 410 nm. Maximum lysis (Amax) was determined by incubating serum with erythrbcytes in the presence of human serum diluted 1:400 (final concentration in assay mixture) in 0.1 M Hepes/0.15 M NaCl/0.1% gelatin pH 7.4. Background lysis (Ao) was determined by incubating erythrocytes in the absence of any serum or compound, using PBS as a control.

[5] = system: Enterococcus faecium STR 207 (Van A resistant phenotype); conditions: E. faecium STR 207
Protocol: as §1

physchem = conditions: dimethylsulphoxide
Protocol: The 2-thiopyridyl content of the peptide was measured by dissolving it to around 0.03 mM to 0.2 mM in 0.1 M Sodium Borate pH 8.0 and reducing by addition of dithiothreitol to 5 mM. The change in optical density at 343 nm was used to calculate the amount of pyridine 2-thione released using an extinction coefficient at this wavelength of 8080 cm−1 M−1.

[6] = system: sensitised sheep erythrocytes; assay: Haemolysis assay; format: cell-based; conditions: 1 hour at 37° C., printed μM or uM, read-out: LC50 (concentration of compound required to give 50% lysis)
Protocol: as §2, §3

[7] = STR 211 (Vancomycin sensitive phenotype)

Row | SMILES | minimum inhibitory concentration to prevent the growth of B. subtilis strain 168S ([1]; 6 h) [µg/mL] | minimum inhibitory concentration to prevent the growth of B. subtilis strain 168S ([1]; 24 h) [µg/mL] | minimum inhibitory concentration to prevent the growth of E. coli strain TG1 ([2]; strain TG1, 6 h) [µg/mL] | minimum inhibitory concentration to prevent the growth of E. coli strain TG1 ([2]; strain TG1, 16 h) [µg/mL] | minimum inhibitory concentration (Staphylococcus aureus H; H) [µg/mL] | minimum inhibitory concentration [3, 7] [µg/mL] | minimum inhibitory concentration [4] [µg/mL] | CC50 at 1 hour (Haemolysis assay) [µM] | minimum inhibitory concentration [5] [µg/mL] | minimum inhibitory concentration (Staphylococcus aureus H; S. aureus H) [µg/mL] | minimum inhibitory concentration ([3]; E. faecium STR 211) [µg/mL] | solubility (physchem) [µg/mL] | CC50 [6] [µM]
1 | CCCCCCCCCCCCCC(=O)NCC(=O)N[C@@H](CO)C(=O)N[C@@H](CO)C(=O)N[C@@H](CCCCN)C(=O)N[C@@H](CO)C(=O)N1CCC[C@H]1C(=O)N[C@@H](CO)C(=O)N[C@@H](CCCCN)C(=O)N[C@@H](CCCCN)C(=O)N[C@@H](CCCCN)C(=O)N[C@@H](CCCCN)C(=O)N[C@@H](CCCCN)C(=O)N[C@@H](CCCCN)C(=O)N1CCC[C@H]1C(=O)NCC(=O)N[C@@H](CC(=O)O)C(=O)N[C@@H](CSSC[C@H](NC(=O)[C@H](CC(=O)O)NC(=O)CNC(=O)[C@@H]1CCCN1C(=O)[C@H](CCCCN)NC(=O)[C@H](CCCCN)NC(=O)[C@H](CCCCN)NC(=O)[C@H](CCCCN)NC(=O)[C@H](CCCCN)NC(=O)[C@H](CCCCN)NC(=O)[C@H](CO)NC(=O)[C@@H]1CCCN1C(=O)[C@H](CO)NC(=O)[C@H](CCCCN)NC(=O)[C@H](CO)NC(=O)[C@H](CO)NC(=O)CNC(=O)CCCCCCCCCCCCC)C(N)=O)C(N)=O [APT540] (I: Myristoyl-GSSKSPSKKKKKKPGDC-NH2 / II: Myristoyl-GSSKSPSKKKKKKPGDC-NH2; disulfide I:17-II:17) | 7 | 7 | 67 | 200 | – | – | – | – | – | – | – | – | –
2 | CCCCCCCCCCCCCC(=O)NCC(=O)N[C@@H](CO)C(=O)N[C@@H](CO)C(=O)N[C@@H](CCCCN)C(=O)N[C@@H](CO)C(=O)N1CCC[C@H]1C(=O)N[C@@H](CO)C(=O)N[C@@H](CCCCN)C(=O)N[C@@H](CCCCN)C(=O)N[C@@H](CCCCN)C(=O)N[C@@H](CCCCN)C(=O)N[C@@H](CCCCN)C(=O)N[C@@H](CCCCN)C(=O)N1CCC[C@H]1C(=O)NCC(=O)N[C@@H](CC(=O)O)C(=O)N[C@@H](CSSC[C@H](N)C(=O)O)C(N)=O [APT541] (Myristoyl-GSSKSPSKKKKKKPGDC(Cys(free,S-linked))-NH2) | – | – | – | – | 64 (≈ 30.2 µM) | 64 (≈ 30.2 µM) | 256 (≈ 121 µM) | – | – | – | – | – | –
3 | CCCCCCCCCCCCCC(=O)NCC(=O)N[C@@H](CO)C(=O)N[C@@H](CO)C(=O)N[C@@H](CCCCN)C(=O)N[C@@H](CO)C(=O)N1CCC[C@H]1C(=O)N[C@@H](CO)C(=O)N[C@@H](CCCCN)C(=O)N[C@@H](CC(=O)O)C(=O)N[C@@H](CCCCN)C(=O)N[C@@H](CC(=O)O)C(=O)N[C@@H](CCCCN)C(=O)N[C@@H](CC(=O)O)C(=O)N1CCC[C@H]1C(=O)NCC(=O)N[C@@H](CC(=O)O)C(=O)N[C@@H](CSSCCNC(=O)[C@H]1NC(=O)[C@H]2NC(=O)[C@H](NC(=O)[C@@H]3NC(=O)[C@H](CC(N)=O)NC(=O)[C@H](NC(=O)[C@@H](CC(C)C)NC)[C@H](O)c4ccc(c(Cl)c4)Oc4cc3cc(c4O[C@@H]3O[C@H](CO)[C@@H](O)[C@H](O)[C@H]3O[C@H]3C[C@](C)(N)[C@H](O)[C@H](C)O3)Oc3ccc(cc3Cl)[C@H]2O)c2ccc(O)c(c2)-c2c(O)cc(O)cc21)C(N)=O [APT2041] | – | – | – | – | – | – | 16 (≈ 4.62 µM) | 4.5 | 16 (≈ 4.62 µM) | 8 (≈ 2.31 µM) | 4 (≈ 1.15 µM) | – | –
4 | CCCCCCCCCCCCCC(=O)NCC(=O)N[C@@H](CO)C(=O)N[C@@H](CO)C(=O)N[C@@H](CCCCN)C(=O)N[C@@H](CO)C(=O)N1CCC[C@H]1C(=O)N[C@@H](CO)C(=O)N[C@@H](CCCCN)C(=O)N[C@@H](CCCCN)C(=O)N[C@@H](CCCCN)C(=O)N[C@@H](CCCCN)C(=O)N[C@@H](CCCCN)C(=O)N[C@@H](CCCCN)C(=O)N1CCC[C@H]1C(=O)NCC(=O)N[C@@H](CC(=O)O)C(=O)N[C@@H](CSSCCNC(=O)[C@H]1NC(=O)[C@H]2NC(=O)[C@H](NC(=O)[C@@H]3NC(=O)[C@H](CC(N)=O)NC(=O)[C@H](NC(=O)[C@@H](CC(C)C)NC)[C@H](O)c4ccc(c(Cl)c4)Oc4cc3cc(c4O[C@@H]3O[C@H](CO)[C@@H](O)[C@H](O)[C@H]3O[C@H]3C[C@](C)(N)[C@H](O)[C@H](C)O3)Oc3ccc(cc3Cl)[C@H]2O)c2ccc(O)c(c2)-c2c(O)cc(O)cc21)C(N)=O [APT2036] | – | – | – | – | – | – | 8 (≈ 2.28 µM) | 71 | 8 (≈ 2.28 µM) | 4 (≈ 1.14 µM) | 8 (≈ 2.28 µM) | – | –
5 | CCCCCCCCCCCCCC(=O)NCC(=O)N[C@@H](CO)C(=O)N[C@@H](CO)C(=O)N[C@@H](CCCCN)C(=O)N[C@@H](CO)C(=O)N1CCC[C@H]1C(=O)N[C@@H](CO)C(=O)N[C@@H](CCCCN)C(=O)N[C@@H](CCCCN)C(=O)N[C@@H](CCCCN)C(=O)N[C@@H](CCCCN)C(=O)N[C@@H](CCCCN)C(=O)N[C@@H](CCCCN)C(=O)N1CCC[C@H]1C(=O)NCC(=O)N[C@@H](CC(=O)O)C(=O)N[C@@H](CSSc1ccccn1)C(N)=O [APT542] (Myristoyl-GSSKSPSKKKKKKPGDC(SPy)-NH2) | 3 | 22 | 22 | 67 | 64 (≈ 30.4 µM) | 32 (≈ 15.2 µM) | 256 (≈ 121 µM) | – | 64 (≈ 30.4 µM) | – | – | ≥ 10000 | –
6 | CN[C@H](CC(C)C)C(=O)N[C@H]1C(=O)N[C@@H](CC(N)=O)C(=O)N[C@H]2C(=O)N[C@H]3C(=O)N[C@H](C(=O)N[C@H](C(=O)NCCS)c4cc(O)cc(O)c4-c4cc3ccc4O)[C@H](O)c3ccc(c(Cl)c3)Oc3cc2cc(c3O[C@@H]2O[C@H](CO)[C@@H](O)[C@H](O)[C@H]2O[C@H]2C[C@](C)(N)[C@H](O)[C@H](C)O2)Oc2ccc(cc2Cl)[C@H]1O.Cl [APT2035] | – | – | – | – | – | – | 16 | – | – | 8 | 2 | – | > 166
7 | CN[C@H](CC(C)C)C(=O)N[C@H]1C(=O)N[C@@H](CC(N)=O)C(=O)N[C@H]2C(=O)N[C@H]3C(=O)N[C@H](C(=O)N[C@H](C(=O)NCCSSc4ccccn4)c4cc(O)cc(O)c4-c4cc3ccc4O)[C@H](O)c3ccc(c(Cl)c3)Oc3cc2cc(c3O[C@@H]2O[C@H](CO)[C@@H](O)[C@H](O)[C@H]2O[C@H]2C[C@](C)(N)[C@H](O)[C@H](C)O2)Oc2ccc(cc2Cl)[C@H]1O.Cl [APT2033] | – | – | – | – | – | – | 32 | – | 256 | 4 | 2 | – | > 166

— patent US7078380B2, “Antibacterial agents comprising conjugates of glycopeptides and peptidic membrane associating elements” (priority 2000, dated 2006)
